# Where two headings read alike, the source gives them in different places.
# What was measured:
# [1] = system: Candida albicans CCM 8320, ATCC 24433; assay: Antifungal microdilution broth MIC, CA
# [2] = system: Candida krusei CCM 8271, ATCC 6258; assay: Antifungal microdilution broth MIC, CK; conditions: Pichia kudriavzevii
# [3] = system: Klebsiella pneumoniae CCM 4415, ATCC 10031; assay: Antibacterial microdilution broth MIC, KP
# [4] = system: Aspergillus fumigatus ATCC 204305; assay: Antifungal microdilution broth MIC, AF
# [5] = system: Staphylococcus epidermidis CCM 4418, ATCC 12228; assay: Antibacterial microdilution broth MIC, SE; assay type: cell-based
# [6] = system: Pseudomonas aeruginosa CCM 3955, ATCC 27853; assay: Antibacterial microdilution broth MIC, PA; assay type: cell-based
# [7] = system: Aspergillus flavus CCM 8363; assay: Antifungal microdilution broth MIC, AFla
# [8] = system: Mycolicibacterium aurum DSM 43999; assay: Antimycobacterial microdilution broth MIC (resazurin), M. aurum; assay type: cell-based; conditions: DSM43999, read-out: MIC M. aurum
# [9] = system: Trichophyton interdigitale CCM 8377, ATCC 9533; assay: Antifungal microdilution broth MIC, TI; conditions: Trichophyton interdigitale
# [10] = system: Candida tropicalis CCM 8264, ATCC 750; assay: Antifungal microdilution broth MIC, CT
# [11] = system: Mycobacterium tuberculosis H37Ra; assay: Antimycobacterial microdilution broth MIC (resazurin), Mtb H37Ra; assay type: cell-based; conditions: for MIC: Mycobacterium tuberculosis, H37RA, read-out: MIC Mtb H37Ra; for SI (selectivity index): SI = HepG2 IC50 (μM)/MIC MtbH37Ra (μM), calculated for compounds with MIC ≤ 31.25 μg/mL
# [12] = system: Staphylococcus aureus subsp. aureus CCM 4750, ATCC 43300 (MRSA); assay: Antibacterial microdilution broth MIC, MRSA; assay type: cell-based; conditions: Staphylococcus aureus
# [13] = system: Mycolicibacterium smegmatis DSM 43465; assay: Antimycobacterial microdilution broth MIC (resazurin), M. smegmatis; assay type: cell-based; conditions: DSM43465, read-out: MIC M. smegmatis
# [14] = system: Enterococcus faecalis CCM 4224, ATCC 29212; assay: Antibacterial microdilution broth MIC, EF; assay type: cell-based
# [15] = system: Candida parapsilosis CCM 8260, ATCC 22019; assay: Antifungal microdilution broth MIC, CP; conditions: Lodderomyces parapsilosis
# [16] = system: Escherichia coli CCM 3954, ATCC 25922; assay: Antibacterial microdilution broth MIC, EC; assay type: cell-based
# [17] = system: Staphylococcus aureus CCM 4223, ATCC 29213; assay: Antibacterial microdilution broth MIC, SA; assay type: cell-based; conditions: Staphylococcus aureus
# [18] = system: Lichtheimia corymbifera CCM 8077; assay: Antifungal microdilution broth MIC, LC
# [19] = system: Acinetobacter baumannii DSM 30007, ATCC 19606; assay: Antibacterial microdilution broth MIC, ACI; assay type: cell-based
# [20] = system: HepG2 cell line; assay: Cytotoxicity CellTiter 96, HepG2; assay type: cell-based, human; conditions: Homo sapiens, HepG2, 24 h, 24 h incubation; ^c compound precipitated in the testing medium; ^d over the limit of tested concentrations
# [21] = ATCC204305, 24 h, read-out: MIC AF 24h
# [22] = ATCC204305, 48 h, read-out: MIC AF 48h
# [23] = CCM8363, 24 h, read-out: MIC AFla 24h
# [24] = CCM8363, 48 h, read-out: MIC AFla 48h
# [25] = CCM8077, 24 h, read-out: MIC LC 24h
# [26] = CCM8077, 48 h, read-out: MIC LC 48h
SMILES,"MIC ([1]; 24 h, read-out: MIC CA 24h) [µM]","MIC ([1]; 48 h, read-out: MIC CA 48h) [µM]","MIC ([2]; 24 h, read-out: MIC CK 24h) [µM]","MIC ([2]; 48 h, read-out: MIC CK 48h) [µM]",MIC KP 24h [3] [µM],MIC KP 48h [3] [µM],"MIC [4, 21] [µM]","MIC [4, 22] [µM]","MIC ([5]; 24 h, read-out: MIC SE 24h) [µM]","MIC ([5]; 48 h, read-out: MIC SE 48h) [µM]","MIC ([6]; 24 h, read-out: MIC PA 24h) [µM]","MIC ([6]; 48 h, read-out: MIC PA 48h) [µM]","MIC [7, 23] [µM]","MIC [7, 24] [µM]",MIC [8] [µg/mL],"MIC ([9]; 72 h, read-out: MIC TI 72h) [µM]","MIC ([9]; 120 h, read-out: MIC TI 120h) [µM]","MIC ([10]; 24 h, read-out: MIC CT 24h) [µM]","MIC ([10]; 48 h, read-out: MIC CT 48h) [µM]",MIC ([11]; Calculated from MIC (μg/mL)) [µM],further results
O=C(Cc1ccc(Cl)cc1)Nc1ccccn1 [Compound 19],> 500,> 500,500,500,> 500,> 500,> 500,> 500,125,125,> 500,> 500,> 500,> 500,> 500,250,250,> 500,> 500,127,"MIC [11]: 31.2 µg/mL; SI (selectivity index) [11]: 2.6; MIC ([12]; 24 h, read-out: MIC MRSA 24h): > 500 µM; MIC ([12]; 48 h, read-out: MIC MRSA 48h): > 500 µM; MIC [13]: 31.2 µg/mL; MIC ([14]; 24 h, read-out: MIC EF 24h): > 500 µM; MIC ([14]; 48 h, read-out: MIC EF 48h): > 500 µM; MIC ([15]; 24 h, read-out: MIC CP 24h): 500 µM; MIC ([15]; 48 h, read-out: MIC CP 48h): 500 µM; MIC ([16]; 24 h, read-out: MIC EC 24h): > 500 µM; MIC ([16]; 48 h, read-out: MIC EC 48h): > 500 µM; MIC ([17]; 24 h, read-out: MIC SA 24h): 500 µM; MIC ([17]; 48 h, read-out: MIC SA 48h): 500 µM; MIC [18, 25]: > 500 µM; MIC [18, 26]: > 500 µM; MIC ([19]; 24 h, read-out: MIC ACI 24h): > 500 µM; MIC ([19]; 48 h, read-out: MIC ACI 48h): > 500 µM; IC50 [20]: 333 µM"
O=C(Cc1ccccc1C(F)(F)F)Nc1ccccn1 [Compound 22],> 500,> 500,> 500,> 500,> 500,> 500,500,> 500,> 500,> 500,> 500,> 500,> 500,> 500,250,500,500,> 500,> 500,446,"MIC [11]: 125 µg/mL; MIC ([12]; 24 h, read-out: MIC MRSA 24h): > 500 µM; MIC ([12]; 48 h, read-out: MIC MRSA 48h): > 500 µM; MIC [13]: 250 µg/mL; MIC ([14]; 24 h, read-out: MIC EF 24h): > 500 µM; MIC ([14]; 48 h, read-out: MIC EF 48h): > 500 µM; MIC ([15]; 24 h, read-out: MIC CP 24h): > 500 µM; MIC ([15]; 48 h, read-out: MIC CP 48h): > 500 µM; MIC ([16]; 24 h, read-out: MIC EC 24h): > 500 µM; MIC ([16]; 48 h, read-out: MIC EC 48h): > 500 µM; MIC ([17]; 24 h, read-out: MIC SA 24h): > 500 µM; MIC ([17]; 48 h, read-out: MIC SA 48h): > 500 µM; MIC [18, 25]: 500 µM; MIC [18, 26]: > 500 µM; MIC ([19]; 24 h, read-out: MIC ACI 24h): > 500 µM; MIC ([19]; 48 h, read-out: MIC ACI 48h): > 500 µM; IC50 [20]: 445 µM"
O=C(Cc1ccccc1C(F)(F)F)Nc1ccc(Cl)cn1 [Compound 23],> 500,> 500,> 500,> 500,> 500,> 500,> 500,> 500,> 500,> 500,> 500,> 500,> 500,> 500,> 500,500,500,> 500,> 500,99.3,"MIC [11]: 31.2 µg/mL; SI (selectivity index) [11]: 2.0; MIC ([12]; 24 h, read-out: MIC MRSA 24h): > 500 µM; MIC ([12]; 48 h, read-out: MIC MRSA 48h): > 500 µM; MIC [13]: > 500 µg/mL; MIC ([14]; 24 h, read-out: MIC EF 24h): > 500 µM; MIC ([14]; 48 h, read-out: MIC EF 48h): > 500 µM; MIC ([15]; 24 h, read-out: MIC CP 24h): > 500 µM; MIC ([15]; 48 h, read-out: MIC CP 48h): > 500 µM; MIC ([16]; 24 h, read-out: MIC EC 24h): > 500 µM; MIC ([16]; 48 h, read-out: MIC EC 48h): > 500 µM; MIC ([17]; 24 h, read-out: MIC SA 24h): > 500 µM; MIC ([17]; 48 h, read-out: MIC SA 48h): > 500 µM; MIC [18, 25]: > 500 µM; MIC [18, 26]: > 500 µM; MIC ([19]; 24 h, read-out: MIC ACI 24h): > 500 µM; MIC ([19]; 48 h, read-out: MIC ACI 48h): > 500 µM; IC50 [20]: 201 µM"

# Source: paper PMC11748363, “Antimicrobial and Antiproliferative Properties of 2‐Phenyl‐N‐(Pyridin‐2‐yl)acetamides” (Chemical Biology & Drug Design, 2025)
